Laboratory results taken from US10167262B2, “Herbicidal substituted 3-arylpyrazoles” (FMC CORPORATION, priority 2014, dated 2019).

Experiments:
Assay in all cases: Test E pre-/postemergence greenhouse test, plant response rating 0-100
Format in all cases: in vivo
[1] = test system: smartweed (ladysthumb smartweed, Polygonum persicaria); conditions: Preemergence, scale 0 to 100
[2] = test system: morningglory (Ipomoea coccinea); conditions: Preemergence, scale 0 to 100
[3] = test system: field bindweed (Convolvulus arvensis); conditions: scale 0 to 100
How it was run: (§1)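 Greenhouse pot assay, two application timings. Pre- to silt loam at planting; post- to 1–4-leaf plants. Visual 0–100 score at 14–21 d.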

[4] = test system: ragweed (common ragweed, Ambrosia elatior); conditions: Preemergence, scale 0 to 100
How it was run: as §1

[5] = test system: waterhemp (common waterhemp, Amaranthus rudis); conditions: scale 0 to 100; for Waterhemp plant response rating: Preemergence
How it was run: as §1

[6] = test system: smartweed (ladysthumb smartweed, Polygonum persicaria); conditions: Postemergence, scale 0 to 100
[7] = test system: velvetleaf (Abutilon theophrasti); conditions: Preemergence, scale 0 to 100
How it was run: as §1

kochia (Kochia scoparia) = conditions: Preemergence, scale 0 to 100
How it was run: as §1

soybean (Glycine max) = conditions: scale 0 to 100; for Soybean plant response rating: Preemergence
How it was run: as §1

SMILES: Cn1cc(C(=O)c2ccccc2)c(-c2cc(Cl)cc(Cl)c2)n1 [Compound 54, [3-(3,5-dichlorophenyl)-1-methyl-1H-pyrazol-4-yl]phenylmethanone]
- Smartweed plant response rating ([1]; 125 g ai/ha): 0
- Smartweed plant response rating ([1]; 250 g ai/ha): 0
- Morningglory plant response rating ([2]; 125 g ai/ha): 7
- Morningglory plant response rating ([2]; 250 g ai/ha): 12
- pest or weed control at 16 g/ha ([3]; Convolvulus arvensis, post-emergence, Postemergence, 16 g ai/ha): 0%
- pest or weed control at 31 g/ha ([3]; Convolvulus arvensis, post-emergence, Postemergence, 31 g ai/ha): 0%
- pest or weed control at 62 g/ha ([3]; Convolvulus arvensis, post-emergence, Postemergence, 62 g ai/ha): 0%
- pest or weed control at 125 g/ha ([3]; Convolvulus arvensis, post-emergence, Postemergence, 125 g ai/ha): 0%
- pest or weed control at 250 g/ha ([3]; Convolvulus arvensis, post-emergence, Postemergence, 250 g ai/ha): 0%
- pest or weed control at 1000 g/ha ([3]; Convolvulus arvensis, pre-emergence, Preemergence, 1000 g ai/ha): 0%
- Field Bindweed plant response rating ([3]; Preemergence, 125 g ai/ha): 0
- Field Bindweed plant response rating ([3]; Preemergence, 250 g ai/ha): 0
- Ragweed plant response rating ([4]; 125 g ai/ha): 35
- Ragweed plant response rating ([4]; 250 g ai/ha): 62
- pest or weed control at 62 g/ha ([5]; Amaranthus tuberculatus, post-emergence, Postemergence, 62 g ai/ha): 60%
- pest or weed control at 125 g/ha ([5]; Amaranthus tuberculatus, post-emergence, Postemergence, 125 g ai/ha): 70%
- pest or weed control at 250 g/ha ([5]; Amaranthus tuberculatus, post-emergence, Postemergence, 250 g ai/ha): 95%
- Waterhemp plant response rating ([5]; 125 g ai/ha): 96
- Waterhemp plant response rating ([5]; 250 g ai/ha): 99
- Plant response rating, Smartweed ([6]; 250 g ai/ha): 0
- Velvetleaf plant response rating ([7]; 125 g ai/ha): 87
- Velvetleaf plant response rating ([7]; 250 g ai/ha): 78
- Kochia plant response rating (kochia (Kochia scoparia); 125 g ai/ha): 0
- Kochia plant response rating (kochia (Kochia scoparia); 250 g ai/ha): 28
- Plant response rating, Kochia (kochia (Kochia scoparia); 1000 g ai/ha): 97
- plant injury at 31 g/ha (soybean (Glycine max); Glycine max, post-emergence, Postemergence, 31 g ai/ha): 0%
- plant injury at 62 g/ha (soybean (Glycine max); Glycine max, post-emergence, Postemergence, 62 g ai/ha): 0%
- plant injury at 125 g/ha (soybean (Glycine max); Glycine max, post-emergence, Postemergence, 125 g ai/ha): 0%
- plant injury at 250 g/ha (soybean (Glycine max); Glycine max, post-emergence, Postemergence, 250 g ai/ha): 0%
- Soybean plant response rating (soybean (Glycine max); 125 g ai/ha): 0
- Soybean plant response rating (soybean (Glycine max); 250 g ai/ha): 12

SMILES: Fc1cccc(NN=C(c2ccccc2)c2c[nH]nc2-c2cc(Cl)cc(Cl)c2)c1 [Compound 58]
- Plant response rating, Field Bindweed ([3]; Postemergence, 31 g ai/ha): 0
- Plant response rating, Field Bindweed ([3]; Postemergence, 62 g ai/ha): 0
- Plant response rating, Field Bindweed ([3]; Postemergence, 125 g ai/ha): 0
- Plant response rating, Field Bindweed ([3]; Postemergence, 250 g ai/ha): 0
- Plant response rating, Field Bindweed ([3]; Postemergence, 500 g ai/ha): 10
- Plant response rating, Waterhemp ([5]; Postemergence, 31 g ai/ha): 80
- Plant response rating, Waterhemp ([5]; Postemergence, 62 g ai/ha): 90
- Plant response rating, Waterhemp ([5]; Postemergence, 125 g ai/ha): 95
- Plant response rating, Waterhemp ([5]; Postemergence, 250 g ai/ha): 100
- Plant response rating, Waterhemp ([5]; Postemergence, 500 g ai/ha): 100
- Plant response rating, Smartweed ([6]; 31 g ai/ha): 0
- Plant response rating, Smartweed ([6]; 125 g ai/ha): 50
- Plant response rating, Soybean (soybean (Glycine max); Postemergence, 31 g ai/ha): 0
- Plant response rating, Soybean (soybean (Glycine max); Postemergence, 62 g ai/ha): 0
- Plant response rating, Soybean (soybean (Glycine max); Postemergence, 125 g ai/ha): 0
- Plant response rating, Soybean (soybean (Glycine max); Postemergence, 250 g ai/ha): 0
- Plant response rating, Soybean (soybean (Glycine max); Postemergence, 500 g ai/ha): 0

SMILES: C=CCn1cc(C(=O)c2ccccc2)c(-c2cc(Cl)cc(Cl)c2)n1 [Compound 60]
- Plant response rating, Field Bindweed ([3]; Postemergence, 16 g ai/ha): 0
- Plant response rating, Field Bindweed ([3]; Postemergence, 31 g ai/ha): 0
- Plant response rating, Field Bindweed ([3]; Postemergence, 62 g ai/ha): 0
- Plant response rating, Field Bindweed ([3]; Postemergence, 125 g ai/ha): 0
- Plant response rating, Field Bindweed ([3]; Postemergence, 250 g ai/ha): 0
- Plant response rating, Waterhemp ([5]; Postemergence, 31 g ai/ha): 20
- Plant response rating, Waterhemp ([5]; Postemergence, 62 g ai/ha): 25
- Plant response rating, Waterhemp ([5]; Postemergence, 125 g ai/ha): 25
- Plant response rating, Waterhemp ([5]; Postemergence, 250 g ai/ha): 30
- Plant response rating, Smartweed ([6]; 31 g ai/ha): 0
- Plant response rating, Smartweed ([6]; 62 g ai/ha): 0
- Plant response rating, Smartweed ([6]; 125 g ai/ha): 0
- Plant response rating, Smartweed ([6]; 250 g ai/ha): 0
- Plant response rating, Soybean (soybean (Glycine max); Postemergence, 31 g ai/ha): 0
- Plant response rating, Soybean (soybean (Glycine max); Postemergence, 62 g ai/ha): 0
- Plant response rating, Soybean (soybean (Glycine max); Postemergence, 125 g ai/ha): 0
- Plant response rating, Soybean (soybean (Glycine max); Postemergence, 250 g ai/ha): 0
